ChEMBL document CHEMBL3397042, “Synthesis of a chondroitin sulfate disaccharide library and a GAG-binding protein interaction analysis” (Bioorg Med Chem Lett, 2015)

molecular target: Fibroblast growth factor 2 (Homo sapiens, UniProt P09038); assay: Binding affinity to basic fibroblast growth factor (unknown origin) using sugar chip immobilized compound by surface plasmon resonance method; conditions: not given
Sequence (P09038 143-288 limits assumed): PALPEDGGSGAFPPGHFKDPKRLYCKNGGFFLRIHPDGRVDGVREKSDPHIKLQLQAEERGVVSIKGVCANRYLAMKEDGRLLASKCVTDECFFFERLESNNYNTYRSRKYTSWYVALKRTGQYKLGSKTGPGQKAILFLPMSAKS

| Kd | Compound |
| --- | --- |
| Not Active | CC(=O)N[C@H]1[C@@H](OC[C@@H](O)[C@@H](O)[C@H](O)[C@@H](O)CNc2cccc(NC(=O)CCCCC3CCSS3)c2)O[C@H](CO)[C@H](O)[C@@H]1O[C@@H]1O[C@H](C(=O)[O-])[C@@H](O)[C@H](O)[C@H]1O.[Na+] (stereo partly specified) |
| Not Active | CC(=O)N[C@H]1[C@@H](OC[C@@H](O)[C@@H](O)[C@H](O)[C@@H](O)CNc2cccc(NC(=O)CCCCC3CCSS3)c2)O[C@H](CO)[C@H](OS(=O)(=O)[O-])[C@@H]1O[C@@H]1O[C@H](C(=O)[O-])[C@@H](O)[C@H](O)[C@H]1O.[Na+].[Na+] (mixture of isomers) |

same assay, conditions: read-out: Kd

| Compound | Kd [nM] |
| --- | --- |
| CC(=O)N[C@H]1[C@@H](OC[C@@H](O)[C@@H](O)[C@H](O)[C@@H](O)CNc2cccc(NC(=O)CCCCC3CCSS3)c2)O[C@H](CO)[C@H](O)[C@@H]1O[C@@H]1O[C@H](C(=O)O)[C@@H](O)[C@H](O)[C@H]1OS(=O)(=O)O (mixture of isomers) | 62 |
| CC(=O)N[C@H]1[C@@H](OC[C@@H](O)[C@@H](O)[C@H](O)[C@@H](O)CNc2cccc(NC(=O)CCCCC3CCSS3)c2)O[C@H](COS(=O)(=O)O)[C@H](O)[C@@H]1O[C@@H]1O[C@H](C(=O)O)[C@@H](O)[C@H](OS(=O)(=O)O)[C@H]1O (mixture of isomers) | 147 |
| CC(=O)N[C@H]1[C@@H](OC[C@@H](O)[C@@H](O)[C@H](O)[C@@H](O)CNc2cccc(NC(=O)CCCCC3CCSS3)c2)O[C@H](CO)[C@H](O)[C@@H]1O[C@@H]1O[C@H](C(=O)O)[C@@H](O)[C@H](OS(=O)(=O)O)[C@H]1OS(=O)(=O)O (mixture of isomers) | 95 |
| CC(=O)N[C@H]1[C@@H](OC[C@@H](O)[C@@H](O)[C@H](O)[C@@H](O)CNc2cccc(NC(=O)CCCCC3CCSS3)c2)O[C@H](COS(=O)(=O)O)[C@H](OS(=O)(=O)O)[C@@H]1O[C@@H]1O[C@H](C(=O)O)[C@@H](O)[C@H](OS(=O)(=O)O)[C@H]1O (mixture of isomers) | 60 |
| CC(=O)N[C@H]1[C@@H](OC[C@@H](O)[C@@H](O)[C@H](O)[C@@H](O)CNc2cccc(NC(=O)CCCCC3CCSS3)c2)O[C@H](CO)[C@H](OS(=O)(=O)O)[C@@H]1O[C@@H]1O[C@H](C(=O)O)[C@@H](O)[C@H](OS(=O)(=O)O)[C@H]1OS(=O)(=O)O (mixture of isomers) | 52 |
| CC(=O)N[C@H]1[C@@H](OC[C@@H](O)[C@@H](O)[C@H](O)[C@@H](O)CNc2cccc(NC(=O)CCCCC3CCSS3)c2)O[C@H](COS(=O)(=O)O)[C@H](O)[C@@H]1O[C@@H]1O[C@H](C(=O)O)[C@@H](O)[C@H](OS(=O)(=O)O)[C@H]1OS(=O)(=O)O (mixture of isomers) | 99 |

Now from value to molecule:

| Kd [nM] | Compound |
| --- | --- |
| 16 | CC(=O)N[C@H]1[C@@H](OC[C@@H](O)[C@@H](O)[C@H](O)[C@@H](O)CNc2cccc(NC(=O)CCCCC3CCSS3)c2)O[C@H](COS(=O)(=O)O)[C@H](OS(=O)(=O)O)[C@@H]1O[C@@H]1O[C@H](C(=O)O)[C@@H](O)[C@H](O)[C@H]1O (stereo partly specified) |
| 41 | CC(=O)N[C@H]1[C@@H](OC[C@@H](O)[C@@H](O)[C@H](O)[C@@H](O)CNc2cccc(NC(=O)CCCCC3CCSS3)c2)O[C@H](CO)[C@H](OS(=O)(=O)O)[C@@H]1O[C@@H]1O[C@H](C(=O)O)[C@@H](O)[C@H](OS(=O)(=O)O)[C@H]1O (stereo partly specified) |
| 36 | CC(=O)N[C@H]1[C@@H](OC[C@@H](O)[C@@H](O)[C@H](O)[C@@H](O)CNc2cccc(NC(=O)CCCCC3CCSS3)c2)O[C@H](COS(=O)(=O)O)[C@H](O)[C@@H]1O[C@@H]1O[C@H](C(=O)O)[C@@H](O)[C@H](O)[C@H]1O (mixture of isomers) |
| 25 | CC(=O)N[C@H]1[C@@H](OC[C@@H](O)[C@@H](O)[C@H](O)[C@@H](O)CNc2cccc(NC(=O)CCCCC3CCSS3)c2)O[C@H](CO)[C@H](O)[C@@H]1O[C@@H]1O[C@H](C(=O)O)[C@@H](O)[C@H](OS(=O)(=O)O)[C@H]1O (mixture of isomers) |
| 41 | CC(=O)N[C@H]1[C@@H](OC[C@@H](O)[C@@H](O)[C@H](O)[C@@H](O)CNc2cccc(NC(=O)CCCCC3CCSS3)c2)O[C@H](CO)[C@H](OS(=O)(=O)O)[C@@H]1O[C@@H]1O[C@H](C(=O)O)[C@@H](O)[C@H](O)[C@H]1OS(=O)(=O)O (mixture of isomers) |
| 23 | CC(=O)N[C@H]1[C@@H](OC[C@@H](O)[C@@H](O)[C@H](O)[C@@H](O)CNc2cccc(NC(=O)CCCCC3CCSS3)c2)O[C@H](COS(=O)(=O)O)[C@H](O)[C@@H]1O[C@@H]1O[C@H](C(=O)O)[C@@H](O)[C@H](O)[C@H]1OS(=O)(=O)O (mixture of isomers) |
| 21 | CC(=O)N[C@H]1[C@@H](OC[C@@H](O)[C@@H](O)[C@H](O)[C@@H](O)CNc2cccc(NC(=O)CCCCC3CCSS3)c2)O[C@H](COS(=O)(=O)O)[C@H](OS(=O)(=O)O)[C@@H]1O[C@@H]1O[C@H](C(=O)O)[C@@H](O)[C@H](O)[C@H]1OS(=O)(=O)O (mixture of isomers) |
| 4.9 | CC(=O)N[C@H]1[C@@H](OC[C@@H](O)[C@@H](O)[C@H](O)[C@@H](O)CNc2cccc(NC(=O)CCCCC3CCSS3)c2)O[C@H](COS(=O)(=O)O)[C@H](OS(=O)(=O)O)[C@@H]1O[C@@H]1O[C@H](C(=O)O)[C@@H](O)[C@H](OS(=O)(=O)O)[C@H]1OS(=O)(=O)O (mixture of isomers) |
